We go through 18 molecules from patent US4207343A, “1-Phenyl-3-(substituted phenoxy)propylamines” (priority 1978, dated 1980).

For one test, the target named is T1, uptake of norepinephrine (Rattus norvegicus, UniProt Q63380).
T1 construct: from tissue; host or cells: synaptosomes of Sprague-Dawley rat brain (cortex, by 'similar experiment')
The test can be described thus: Inhibition of norepinephrine uptake in synaptosomes, kinetics. The test is classed as biochemical, Sprague-Dawley rats.

In test [1] the test system is serotonin uptake versus norepinephrine uptake. The test can be described thus: Relative effectiveness in inhibiting serotonin versus norepinephrine uptake.
Test [2] concerns uptake of physiologically active monoamines. The test can be described thus: Blocking of uptake of physiologically active monoamines (serotonin, norepinephrine, dopamine). The following applies: in vitro and in vivo. The text has this:
(§1) This blockade is shown both in vitro using radioactive labelled compounds to determine the amount of monoamine uptake by synaptosomes from rat brain, and in vivo by a variety of methods using the procedure of Wong and Bymaster, Biochem. Pharmacol., 25, 1978 (1976). Among the physiologically active monoamines whose uptake is blocked by the compounds of this invention are included serotonin, norepinephrine and dopamine (3,4-dihydroxyphenylethylamine). […] Table 1 which follows sets forth the results of some of the in vitro determinations of the blockage of monoamine uptake by the compounds of this invention. In the table, column 1 gives the R substituent on the 1-phenylpropylamine, colums 2 and 3, the R^1 and R^2 substituents on the amine nitrogen and columns […], the concentration in micrograms per ml. that blocks the uptake of a particular amine by 50 percent (IC50) for the amines, serotonin and norephinephrine. At the head of each column is given the concentration of the particular monoamine used in the experiment.

The next test deals with norepinephrine uptake. In words: In vivo decrease in norepinephrine uptake after intraperitoneal injection. The following applies: 100 mg./kg level, hydrochloride salt. The protocol: (§2) There was also a decrease in norepinephrine uptake at a 100 mg./kg level but the reduction was less than 50% at this high dose level.
Test [3] deals with norepinephrine uptake by synaptosomes from rat brain. In words: Blockage of norepinephrine uptake in vitro by synaptosomes from rat brain (Table 1). The test is classed as biochemical. The following applies: norepinephrine 0.48 μuM, read-out: IC50 Norepinephrine (concentration that blocks uptake by 50 percent).
Description: as §1

Test [4] has as its target uptake of serotonin in cortical synaptosomes (Rattus norvegicus, UniProt P31652). The test can be described thus: Inhibition of serotonin uptake in cortical synaptosomes, kinetics. The test is classed as biochemical, Sprague-Dawley rats.
Description: (§3) The uptake of serotonin in cortical synaptosomes and in platelets of human plasma in the presence of this compound were studied. Corticosynaptosomes were prepared as follows: Sprague-Dawley rats weighing about 150 g. were decapitated and their brains immediately removed and dissected. Crude synaptosomes were prepared from a 10 percent homogenate in 0.32 M scurose and in 10 μM glucose by differential centrifugation according to the procedure of Wong and Bymaster (loc. cit.).
The subject of test [5] is uptake of serotonin by hypothalamic synaptosomes. The test can be described thus: In vivo inhibition of serotonin uptake by hypothalamic synaptosomes after intraperitoneal injection. The following applies: ip, as hydrochloride salt, read-out: calculated ED50 (effective dose), inhibition of serotonin uptake by hypothalamic synaptosomes. The protocol: as §2
Test [6] relates to serotonin uptake by synaptosomes from rat brain. In words: Blockage of serotonin uptake in vitro by synaptosomes from rat brain (Table 1). The test is classed as biochemical. The note with it: serotonin 0.1 μuM, read-out: IC50 Serotonin (concentration that blocks uptake by 50 percent).
Description: as §1

Test [7] deals with dopamine uptake from synaptosomes isolated from corpus striatum (Rattus norvegicus, UniProt P23977). The test can be described thus: Inhibition of dopamine uptake in synaptosomes isolated from corpus striatum.
Chain of dopamine uptake from synaptosomes isolated from corpus striatum (P23977 whole entry): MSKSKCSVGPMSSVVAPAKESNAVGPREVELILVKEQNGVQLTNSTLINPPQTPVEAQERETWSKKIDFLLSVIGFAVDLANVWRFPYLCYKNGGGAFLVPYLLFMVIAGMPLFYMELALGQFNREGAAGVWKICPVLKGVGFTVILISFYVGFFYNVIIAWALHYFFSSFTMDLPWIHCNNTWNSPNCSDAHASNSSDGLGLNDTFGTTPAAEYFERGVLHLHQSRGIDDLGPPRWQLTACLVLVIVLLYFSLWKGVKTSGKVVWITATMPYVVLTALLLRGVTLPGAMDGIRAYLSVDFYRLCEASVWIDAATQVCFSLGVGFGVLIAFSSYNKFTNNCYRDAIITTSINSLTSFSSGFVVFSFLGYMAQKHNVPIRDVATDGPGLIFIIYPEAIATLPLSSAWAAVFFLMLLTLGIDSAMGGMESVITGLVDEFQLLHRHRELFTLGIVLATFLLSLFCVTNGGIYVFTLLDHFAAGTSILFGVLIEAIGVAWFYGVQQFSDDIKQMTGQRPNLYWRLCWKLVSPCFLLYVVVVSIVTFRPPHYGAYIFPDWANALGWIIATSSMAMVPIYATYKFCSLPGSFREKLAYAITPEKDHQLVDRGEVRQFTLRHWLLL
Test [8] deals with uptake of serotonin by platelets. The note with it: human platelet-rich plasma; estimated value.
Description: A study of the uptake of serotonin from platelets was carried out as follows: platelet-rich plasma from human volunteers was prepared according to the method of Sneddon, Brit. […] The platelet uptake of serotonin was determined by the procedure of Horng and Wong, Biochem. Pharmacol., 25, 865 (1976).
Test [9] deals with chronic undifferentiated schizophrenic patients. The note with it: oral administration, cited from earlier work.

pIC50, pKi: −log10 of the molar value.

Chain of uptake of serotonin in cortical synaptosomes (P31652 whole entry): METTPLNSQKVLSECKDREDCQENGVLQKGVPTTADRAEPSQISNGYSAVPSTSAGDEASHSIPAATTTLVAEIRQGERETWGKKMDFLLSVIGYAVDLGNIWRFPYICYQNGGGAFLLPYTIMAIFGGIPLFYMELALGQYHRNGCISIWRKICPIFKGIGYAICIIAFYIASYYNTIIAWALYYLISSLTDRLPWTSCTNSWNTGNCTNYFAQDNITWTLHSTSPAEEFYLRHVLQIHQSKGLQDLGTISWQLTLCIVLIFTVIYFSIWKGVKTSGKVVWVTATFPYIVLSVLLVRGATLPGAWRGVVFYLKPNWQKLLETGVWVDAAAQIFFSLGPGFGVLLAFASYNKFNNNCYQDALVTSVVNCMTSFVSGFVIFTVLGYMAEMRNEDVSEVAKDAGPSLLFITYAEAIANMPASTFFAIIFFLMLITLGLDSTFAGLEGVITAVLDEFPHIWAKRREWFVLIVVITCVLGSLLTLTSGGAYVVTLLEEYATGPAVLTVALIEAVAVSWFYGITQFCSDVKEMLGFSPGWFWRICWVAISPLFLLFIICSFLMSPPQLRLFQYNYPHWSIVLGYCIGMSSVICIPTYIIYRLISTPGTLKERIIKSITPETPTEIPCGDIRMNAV
T1 sequence (Q63380 1-617): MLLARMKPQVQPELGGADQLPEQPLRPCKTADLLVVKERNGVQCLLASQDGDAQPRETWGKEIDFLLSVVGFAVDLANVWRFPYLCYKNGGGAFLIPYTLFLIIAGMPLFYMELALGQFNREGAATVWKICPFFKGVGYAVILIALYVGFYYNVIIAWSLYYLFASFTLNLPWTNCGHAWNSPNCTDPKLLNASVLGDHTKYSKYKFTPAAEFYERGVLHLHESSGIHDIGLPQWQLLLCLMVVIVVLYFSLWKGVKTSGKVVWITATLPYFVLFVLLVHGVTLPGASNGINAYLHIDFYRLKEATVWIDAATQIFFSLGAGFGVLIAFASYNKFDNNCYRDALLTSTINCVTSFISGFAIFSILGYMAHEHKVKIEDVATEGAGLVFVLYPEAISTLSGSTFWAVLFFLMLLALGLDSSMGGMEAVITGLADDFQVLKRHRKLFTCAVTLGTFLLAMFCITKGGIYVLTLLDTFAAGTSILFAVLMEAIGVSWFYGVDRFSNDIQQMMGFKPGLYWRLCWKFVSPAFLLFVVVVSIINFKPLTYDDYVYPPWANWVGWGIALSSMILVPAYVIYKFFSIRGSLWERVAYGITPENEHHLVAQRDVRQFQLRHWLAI
Description for uptake of norepinephrine: as §3

Regarding `Cc1ccc(OCCC(c2ccccc2)N(C)C)cc1` (stereo not shown), the “mode of inhibition of norepinephrine uptake” value on uptake of norepinephrine is reported as “competitively inhibited the uptake of norepinephrine”. For the same molecule, the pKi (in general, the negative decadic logarithm of the Ki, by convention in mol/L) on uptake of norepinephrine (synaptosomes, competitive, read-out: inhibitory constant KI, norepinephrine uptake) was 5.66; in [4] (cortical synaptosomes, compound at 0.01, 0.05 and 0.1 μM, competitive, read-out: inhibitor constant KI, serotonin uptake), 7.22; in test [7] it was 5.60. For the same molecule, the “relative effectiveness, serotonin versus norepinephrine uptake (in words)” value in test [1] was “far more effective in inhibiting serotonin uptake than in inhibiting norepinephrine uptake”. Moreover, the “block of uptake of monoamines (in words)” value in test [2] is reported as “particularly active in inhibiting the uptake of biogenic amines”. Besides, the “reduction in norepinephrine uptake” value with norepinephrine uptake is “less than 50%”. The pIC50 was 5.30 in test [3] and 7.10 in test [6]. For the same molecule, in test [4] (0.01, 0.05 and 0.1 μM), the “mode of inhibition of serotonin uptake” value was “competitively inhibited uptake of serotonin”. Besides, in test [5], the ED50 (as a rule, the midpoint of the dose-response relation) is 12 mg/kg. In test [8], the “estimated IC50, serotonin uptake by platelets” value is 14 nmol.

On to `N[C@@H](Cc1c[nH]c2ccc(O)cc12)C(=O)O` [l-5-hydroxytryptophane], for which the “number of schizophrenic patients improved, of 7” value in test [9] (6 of 7 patients) is recorded as 6 patients. In addition, in test [9], the “improvement in schizophrenic patients (in words)” value is on record as “mild to moderate improvement”.

Take `COc1cccc(OCCC(N)c2ccccc2)c1` (stereo not shown) [m-anisyl, H, H, 1-Phenyl-3-(m-anisyloxy)propylamine]: the pIC50 in test [3] was 5.52; in [6], 5.70.

As for `Cc1cccc(OCCC(c2ccccc2)N(C)C)c1` (stereo not shown) [m-tolyl, CH3, CH3], the pIC50 in [3] was 5.29; in test [6], 7.10.

In the case of `Cc1cccc(OCCC(N)c2ccccc2)c1` (stereo not shown) [m-tolyl, H, H], the pIC50 in [3] was 5.24; in [6] it was 5.85.

Consider `COc1ccccc1OCCC(c1ccccc1)N(C)C` (stereo not shown) [o-anisyl, CH3, CH3, N,N-dimethyl 3-(o-anisyloxy)-1-phenylpropylamine], for which the pIC50 was 6.52 in test [3] and 7.00 in test [6].

With `CNC(CCOc1ccccc1OC)c1ccccc1` (stereo not shown) [o-anisyl, CH3, H, N-methyl 1-phenyl-3-(o-anisyloxy)propylamine], the pIC50 in test [3] and in test [6] was 6.30 each time.

As to `COc1ccccc1OCCC(N)c1ccccc1` (stereo not shown) [o-anisyl, H, H, 1-phenyl-3-(o-anisyloxy)propylamine], the pIC50 in [3] is 5.85; in test [6] it was 5.37.

On to `Cc1ccccc1OCCC(N)c1ccccc1` (stereo not shown) [o-tolyl, H, H, 3-(o-cresol)-1-phenylpropylamine], for which the pIC50 was 5.34 in test [3] and 6.46 in test [6].

Turning to `COc1ccc(OCCC(c2ccccc2)N(C)C)cc1` (stereo not shown) [p-anisyl, CH3, CH3, N,N-dimethyl 3-(p-anisyloxy)-1-phenylpropylamine], the values for the pIC50 in [3] and in test [6] were 5.29 and 6.55, respectively.

As to `COc1ccc(OCCC(N)c2ccccc2)cc1` (stereo not shown) [p-anisyl, H, H, 3-(p-anisyloxy)-1-phenylpropylamine], the pIC50 in test [3] is 5.15; in test [6], 6.46.

Take `Cc1ccc(OCCC(N)c2ccccc2)cc1` (stereo not shown) [p-tolyl, H, H]: the results for the pIC50 in test [3] and in test [6] were 5.68 and 6.40, respectively.

Regarding `CN(C)C(CCOc1ccc(C(F)(F)F)cc1)c1ccccc1` (stereo not shown) [p-trifluoromethylphenyl, CH3, CH3, N,N-dimethyl 1-phenyl-3-(p-trifluoromethylphenoxy)-propylamine], the pIC50 in [3] is 5.00; in test [6], 6.68.

For `CNC(CCOc1ccc(C(F)(F)F)cc1)c1ccccc1` (stereo not shown) [p-trifluoromethylphenyl, CH3, H, N-methyl 1-phenyl-3-(p-trifluoromethylphenoxy)-propylamine], the pIC50 is 5.00 in [3] and 6.68 in test [6].

Consider `NC(CCOc1ccc(C(F)(F)F)cc1)c1ccccc1` (stereo not shown) [p-trifluoromethylphenyl, H, H, 1-phenyl-3-(p-trifluoromethylphenoxy)propylamine], for which the results for the pIC50 in test [3] and in [6] were 5.00 and 6.49, respectively.

`CN(C)C(CCOc1ccccc1)c1ccccc1` (stereo not shown) [phenyl, CH3, CH3, N,N-dimethyl 1-phenyl-3-phenoxypropylamine]: the pIC50 in [3] was 6.15; in test [6], 6.00.

Turning to `CNC(CCOc1ccccc1)c1ccccc1` (stereo not shown) [phenyl, CH3, H, N-methyl 3-phenoxy-1-phenylpropylamine], the pIC50 in test [3] is 6.44; in test [6] it was 6.00.

Turning to `NC(CCOc1ccccc1)c1ccccc1` (stereo not shown) [phenyl, H, H, 1-Phenyl-3-phenoxypropylamine], the pIC50 is 6.25 in test [3] and 5.25 in test [6].
